The nature of this data set: physchem. Particulars: water, 25 °C, thermodynamic from solid. As for the experimental part: The suspension was equilibrated at 25° C. for 2 hours with aliquots sampled at 30, 60 and 120 min; the pH was measured at each time point. The suspension was then filtered through a glass fibre C filter. The filtrate was then diluted by an appropriate factor. Quantitation was by HPLC with reference to a standard solution of approximately 0.2 mg/mL in CH3CN:water. Different volumes of the standard, diluted and undiluted sample solutions were injected. […]

Values after ≈ are worked out from the molar mass of the structure shown.

The solubility is the dissolved amount per volume that the medium holds. Higher therefore signals a readily soluble substance. Regarding `C=CC(=O)N1CCC[C@@H](n2nc(-c3ccc(Oc4ccccc4)cc3)c3c(N)ncnc32)C1` [Compound 1, 1-((R)-3-(4-amino-3-(4-phenoxyphenyl)-1H-pyrazolo[3,4-d]pyrimidin-1-yl)piperidin-1-yl)prop-2-en-1-one], the solubility at 30 min is around 1640 µg/mL (≈ 3.72 mM), the solubility at 60 min was around 1640 µg/mL (≈ 3.72 mM) and the solubility at 120 min was around 1690 µg/mL (≈ 3.84 mM).

For the origin of these results see patent publication US20180072739A1, “CO-CRYSTALS OF A BRUTON'S TYROSINE KINASE INHIBITOR” (Pharmacyclic LLC, priority 2015, published 2018).
